Patent US20200237852A1, “Small Molecule Enhancers of Paneth Cell Function and Differentiation” (Massachusetts Institute of Technology, priority 2019, published 2020)

Tests used:
Assay type in all cases: cell-based, C57BL/6 mice
[1] = tested on: mature PC (CD24-mid & LYZ+) and secretory precursor (CD24-hi) populations; experiment: Flow cytometry profiling of organoids in 2.5-D (CD24, LYZ); conditions: 6-day ENR+CD+treatment, fraction of viable cells, n=3 bio. donors
Description: Cells processed for flow cytometry were first gated to exclude potential debris or doublets (via widely accepted forward and side scatter gating), and subsequently gated for viability (via Zombie-violet viability dye exclusion), all viable cells were considered for CD24 & LYZ expression analysis. […] For flow cytometry profiling of the 6 validate small molecules, ISC-enriched ‘small clusters’ in 3D Matrigel culture were passaged to a “2.5D” 96-well plate culture system for six days of ENR, or ENR+CD+drug culture in the same manner as described previously with the exception of plating in 96-well plates prepared with a polymerized 70% Matrigel coating in each well. Plates were centrifuged at 50 g for 1 min at 4° C. to allow for cells to partially embed in Matrigel coating. Drugs were pinned into their respective wells using the Tecan from a drug stamp plate. Media was changed at day three, including pinning of the drug treatments. At day six, cells were washed 3× with basal media, then harvested from Matrigel by mechanical disruption in TrypLE Express to remove Matrigel and dissociate organoids to single cells. After vigorous pipetting and incubation at 37° C. for 20 mins, dissociated organoids were strained through a 96-well filter plate with a 30-40 μm filter (Pall) into an ultra low-bind 96-well plate (Costar) by centrifuging at 300×g for 3 mins at 4° C. The cell filtrate was centrifuged again at 300×g for 3 mins at 4° C. to pellet the cells. Cell pellets were resuspended in FACS buffer (2% FBS in PBS0), then transferred to an ultra low-bind 96-well plate for flow prep. Cells were stained with Zombie-violet viability dye (BioLegend) at 100× for viability staining and/or antibody staining solution. FITC-conjugated antibody for lysozyme and APC-conjugated antibody for CD24 were used at 100× dilution (BioLegend). Flow cytometry was performed using a LSR Fortessa (BD; Koch Institute Flow Cytometry Core at MIT). Flow cytometry data was analyzed using FlowJo X v10.1 software.

[2] = tested on: conventional organoid (ENR); experiment: 384-well screen in conventional organoid (ENR), secreted LYZ (LYZ.NS, LYZ.S); conditions: 6-day ENR differentiation compared with ENR+CD
[3] = tested on: ENR+CD organoids; experiment: Flow cytometry analysis, 3D culture, XPO1 inhibitors; conditions: 6-day ENR+CD organoids
Description: ISC-enriched organoids cultured in 3D Matrigel with ENRCV media were passaged to 24-well plate in 3D Matrigel with ENRCV. At day zero, media were replaced to ENRCD with or without indicated compounds, and media were replaced every other day. At day six, cells were washed with basal media, and then harvested from Matrigel by mechanical disruption in TrypLE Express (ThermoFisher, 12605010) to remove Matrigel and dissociate organoids to single cells. After vigorous pipetting and incubation at 37° C. for 20 min, dissociated organoids were strained through a 35 μm cell strainer into a tube (Falcon, 352235). The cell filtrate was centrifuged again at 300×g for 3 min at 4° C. to pellet the cells. Cell pellets were resuspended in FACS buffer (2% FBS in PBS), and then transferred to an ultra low-bind 96-well plate (Corning, 7007). Cells were stained with Zombie-violet viability dye (BioLegend, 423107) at 100× for viability staining and/or antibody staining solution. FITC-conjugated antibody for lysozyme (Dako, […]) and APC-conjugated antibody for CD24 (BioLegend, 138505) were used at 100× dilution. Flow cytometry was performed using an LSR Fortessa (BD; Koch Institute Flow Cytometry Core at MIT). The data were analyzed using FlowJo v10 software.

[4] = tested on: organoids differentiated under ENR+CV, ENR+CD, or ENR; experiment: Western blotting for LYZ in organoids; conditions: six days in ENR+CV
Description: ISC-enriched organoids cultured in 3D Matrigel with ENRCV media were passaged to 24-well plate in 3D Matrigel with ENRCV. At day zero, media were replaced to ENR or ENRCD with or without indicated compounds, and media were replaced every other day. At day six, cells were harvested from Matrigel by mechanical disruption and suspended in basal media. Cell pellets were lysed with Pierce® IP lysis buffer (ThermoFisher, 87787) containing Halt™ Protease Inhibitor Cocktail, EDTA-Free (ThermoFisher, 87785) after 3-minute centrifuge at 300×g at 4° C. Cell extracts were resolved by NuPAGE® SDS-PAGE Gel system (ThermoFisher) and electroblotted onto polyvinylidene difluoride membranes using Criterion™ Blotter (Biorad). The membranes were blocked with 2% Blotting-Grade Blocker (Biorad, 1706404) in TBS-T (50 mM Tris-HCl, 150 mM NaCl, and 0.1% Tween 20, pH 8.0) and then probed with appropriate antibodies. Detection was performed using ECL Select™ Western Blotting Detection Reagent (Amersham, 45-000-999) and ImageQuant LAS4000 (GE Healthcare).

`O=C(/C=C\n1cnc(-c2cc(C(F)(F)F)cc(C(F)(F)F)c2)n1)NNc1cnccn1` [KPT-330] was tested, and the “mature PC (CD24-mid & LYZ+) population relative to control” value [1] was “statistically significant increase (adj. p<0.01)”, the “secretory precursor (CD24-hi) population relative to control” value [1] was “trend to a smaller population” and the “mean fold change in LYZ.NS/ATP and LYZ.S/ATP (LYZ secretion per cell) in ENR” value [2] was “reasonable increases in LYZ secretion per cell in ENR”. For the same compound, the “Paneth cell representation by flow cytometry” value [3] was “statistically significant increases in Paneth cell representation” and the “LYZ abundance on a per-mass protein normalized basis (western blot)” value [4] was “appreciably increase LYZ abundance”.
